One data set concerns tracheal smooth muscle. Briefly: Dilating action to contraction of tracheal smooth muscle (potassium chloride-induced contraction of isolated trachea segment, Magnus tube). It counts as cell-based. The conditions noted are these: Cavia porcellus; 30 μM test substance; contraction induced by 72.7 mM potassium chloride; guinea pig (Hartley, male) trachea segment; read-out: Activity (suppressing rate for contraction by potassium chloride). The method, then: Each sample is tested by using two segment obtained from one animal; the trachea was removed from a guinea pig (Hartley, male, seven weeks age) and was made the segment, 6 mm in length. The segment was suspended in a Magnus tube containing a physiological salt solution of 37° C. with a flow of mixed gas consisting of 95% oxygen and 5% carbon dioxide gas. A base-line tension of 1 g was applied to the segment and, after tension of the sample became stable, the solution was exchanged with a solution containing 72.7 mM of potassium chloride to induce a contraction. When tension of the contraction by potassium chloride became stable, a compound of the formula (1) was added as a test substance to measure the change in the tension. The test substance was dissolved in dimethyl sulfoxide and added thereto. Incidentally, at the stage of addition, the final concentration of dimethyl sulfoxide was made not more than 0.3%. Changes in the tension was recorded on a recorder (R-64V, Rika Denki) after introducing to an amplifier for strain pressure (AP-621G, Nippon Koden Kogyo) via an FD pickup transducer (TB-611T, Nippon Koden Kogyo). Tension before addition of potassium chloride was set as 0 while that after addition of potassium chloride was set as 100 and the suppressing rate for contraction by potassium chloride after addition of the test substance was expressed by a relative percentage whereby the activity was determined according to the following criteria.
The Compound No. in the table is the same as that in the Production Examples.
For the compound `O=C1Cc2ccccc2Oc2cc(O)cc(O)c21` [Compound 11, 7,9-dihydroxy-10,11-dihydrodibenz[b,f]oxepin-10-one], the inhibition at 30 µM is at least 50%. Still for that read-out and setting: then `O=C1Cc2ccccc2Sc2cc(O)cc(O)c21` [Compound 80, 7,9-dihydroxy-10,11-dihydrodibenzo[b,f]thiepin-10-one], with at least 50%. The same measure, in the same setting: then `CSc1ccc2c(c1)CC(=O)c1c(O)cc(O)cc1O2` [Compound 108, 2-thiomethyl-7,9-dihydroxy-10,11-dihydrodibenzo[b,f]oxepin-10-one], with at least 50%; and `O=C1Cc2cc(Br)ccc2Oc2cc(O)cc(O)c21` [Compound 110, 2-bromo-7,9-dihydroxy-10,11-dihydrodibenzo[b,f]oxepin-10-one], with at least 50%. Consider `CCc1ccc2c(c1)CC(=O)c1c(O)cc(OC)cc1O2` [Compound 111, 2-ethyl-9-hydroxy-7-methoxy-10,11-dihydrodibenzo[b,f]oxepin-10-one], for which the inhibition at 30 µM was at least 50%. On the same count and under the same terms, the result for `CCc1ccc2c(c1)CC(=O)c1c(O)cc(O)cc1O2` [Compound 112, 2-ethyl-7,9-dihydroxy-10,11-dihydrodibenzo[b,f]oxepin-10-one] reads at least 50%; that for `O=C1Cc2cc(C#CCO)ccc2Oc2cc(O)cc(O)c21` [Compound 114], at least 50%.

Consider `O=C1Cc2cc(C#CCCO)ccc2Oc2cc(O)cc(O)c21` [Compound 115, 2-(4-hydroxy-1-butynyl)-7,9-dihydroxy-10,11-dihydrodibenzo[b,f]oxepin-10-one], for which the inhibition at 30 µM is at least 50%. As to `O=C1Cc2cc(C#CCCCO)ccc2Oc2cc(O)cc(O)c21` [Compound 116, 2-(5-hydroxy-1-pentynyl)-7,9-dihydroxy-10,11-dihydrodibenzo[b,f]oxepin-10-one], the inhibition at 30 µM was at least 50%.

Another data set relates to rats.
Experiment: not given
The conditions noted are these: male, rat, in vivo. The method, then: Toxicity test was conducted only for the Compounds 11, 43 and 80 by means of a single oral administration to rats.
Animals used: three males
In the case of `O=C1Cc2ccccc2Oc2cc(O)cc(O)c21` [Compound 11, 7,9-dihydroxy-10,11-dihydrodibenz[b,f]oxepin-10-one], the minimum lethal dose entry is “not less than 2,000 mg/kg”. Turning to `O=C1Cc2ccccc2Sc2cc(O)c(O)cc21` [Compound 43, 7,8-dihydroxy-10,11-dihydrodibenzo[b,f]thiepin-10-one], the minimum lethal dose entry was “not less than 2,000 mg/kg”. On the same count and under the same terms, then `O=C1Cc2ccccc2Sc2cc(O)cc(O)c21` [Compound 80, 7,9-dihydroxy-10,11-dihydrodibenzo[b,f]thiepin-10-one], with “not less than 2,000 mg/kg”.

These data come from patent publication US6495592B1, “Tracheal smooth muscle relaxants” (Nippon Suisan Kaisha, Ltd., priority 1996, dated 2002).
